Results from paper PMC4767141, “Discovery of Potent, Orally Bioavailable, Small-Molecule Inhibitors of WNT Signaling from a Cell-Based Pathway Screen” (Journal of Medicinal Chemistry, 2015).

Experiments:
TCF1 or TCF4 = assay: Endogenous TCF1 and TCF4 levels in COLO205-F1756 clone 4; assay type: cell-based, human; conditions: COLO205-F1756 clone 4, 350 nM
Excerpt: Supplementary Figure S2. Levels of TCF1 and TCF4 in response to treatment of COLO205-
F1756 clone 4 (an APC-mutant human colorectal cancer cell line engineered to express a
(1 picture or pasted object on this page, not shown here)

BZD (central) = assay: CEREP binding panel; conditions: 10 μM, agonist radioligand
ABL(T315I) = molecular target: T1, ABL(T315I) (Homo sapiens, UniProt P00519, T315I); assay: Millipore kinase panel; assay type: biochemical; conditions: read-out: % Control
T1 construct: purchased Millipore KinaseProfiler (kinases); Cerep (receptors and ion channels)

CDK1/CYCLINB = molecular target: T2, CDK1/CYCLINB (Homo sapiens, UniProt P06493); assay: Millipore kinase panel; assay type: biochemical; conditions: read-out: % Control
T2 construct: purchased Millipore KinaseProfiler (kinases); Cerep (receptors and ion channels)

CDK2/CYCLINE = molecular target: T3, CDK2/CYCLINE (Homo sapiens, UniProt P24941); assay: Millipore kinase panel; assay type: biochemical; conditions: read-out: % Control
T3 construct: purchased Millipore KinaseProfiler (kinases); Cerep (receptors and ion channels)

CK1DELTA = molecular target: T4, CK1DELTA (Homo sapiens, UniProt P48730); assay: Millipore kinase panel; assay type: biochemical; conditions: read-out: % Control
T4 construct: purchased Millipore KinaseProfiler (kinases); Cerep (receptors and ion channels)

EGFR(L858R) = molecular target: T5, EGFR(L858R) (Homo sapiens, UniProt P00533, L858R); assay: Millipore kinase panel; assay type: biochemical; conditions: read-out: % Control
T5 construct: purchased Millipore KinaseProfiler (kinases); Cerep (receptors and ion channels)

EGFR(L861Q) = molecular target: T6, EGFR(L861Q) (Homo sapiens, UniProt P00533, L861Q); assay: Millipore kinase panel; assay type: biochemical; conditions: read-out: % Control
T6 construct: purchased Millipore KinaseProfiler (kinases); Cerep (receptors and ion channels)

EPHA4 = molecular target: T7, EPHA4 (Homo sapiens, UniProt P54764); assay: Millipore kinase panel; assay type: biochemical; conditions: read-out: % Control
T7 construct: purchased Millipore KinaseProfiler (kinases); Cerep (receptors and ion channels)

IGF-1R = molecular target: T8, IGF-1R (Homo sapiens, UniProt P08069); assay: Millipore kinase panel; assay type: biochemical; conditions: read-out: % Control
T8 construct: purchased Millipore KinaseProfiler (kinases); Cerep (receptors and ion channels)

NEK11 = molecular target: T9, NEK11 (Homo sapiens, UniProt Q8NG66); assay: Millipore kinase panel; assay type: biochemical; conditions: read-out: % Control
T9 construct: purchased Millipore KinaseProfiler (kinases); Cerep (receptors and ion channels)

PI3K BETA = molecular target: T10, PI3K BETA (Homo sapiens, UniProt P42338); assay: Millipore kinase panel; assay type: biochemical; conditions: read-out: % Control
T10 construct: purchased Millipore KinaseProfiler (kinases); Cerep (receptors and ion channels)

PI3K DELTA = molecular target: T11, PI3K DELTA (Homo sapiens, UniProt O00329); assay: Millipore kinase panel; assay type: biochemical; conditions: read-out: % Control
T11 construct: purchased Millipore KinaseProfiler (kinases); Cerep (receptors and ion channels)

PKBGAMMA = molecular target: T12, PKBGAMMA (Homo sapiens, UniProt Q9Y243); assay: Millipore kinase panel; assay type: biochemical; conditions: read-out: % Control
T12 construct: purchased Millipore KinaseProfiler (kinases); Cerep (receptors and ion channels)

PKCBETAI = molecular target: T13, PKCBETAI (Homo sapiens, UniProt P05771); assay: Millipore kinase panel; assay type: biochemical; conditions: read-out: % Control
T13 construct: purchased Millipore KinaseProfiler (kinases); Cerep (receptors and ion channels)

PKCBII = molecular target: T14, PKCBII (Homo sapiens, UniProt P05771); assay: Millipore kinase panel; assay type: biochemical; conditions: read-out: % Control
T14 construct: purchased Millipore KinaseProfiler (kinases); Cerep (receptors and ion channels)

PKCETA = molecular target: T15, PKCETA (Homo sapiens, UniProt P24723); assay: Millipore kinase panel; assay type: biochemical; conditions: read-out: % Control
T15 construct: purchased Millipore KinaseProfiler (kinases); Cerep (receptors and ion channels)

SYK = molecular target: T16, SYK (Homo sapiens, UniProt P43405); assay: Millipore kinase panel; assay type: biochemical; conditions: read-out: % Control
T16 construct: purchased Millipore KinaseProfiler (kinases); Cerep (receptors and ion channels)

TSSK2 = molecular target: T17, TSSK2 (Homo sapiens, UniProt Q96PF2); assay: Millipore kinase panel; assay type: biochemical; conditions: read-out: % Control
T17 construct: purchased Millipore KinaseProfiler (kinases); Cerep (receptors and ion channels)

CAMKIIGAMMA = molecular target: T18, CAMKIIGAMMA (Homo sapiens, UniProt Q13555); assay: Millipore kinase panel; assay type: biochemical; conditions: read-out: % Control
T18 construct: purchased Millipore KinaseProfiler (kinases); Cerep (receptors and ion channels)

CKIT(V654A) = molecular target: T19, CKIT(V654A) (Homo sapiens, UniProt P10721, V654A); assay: Millipore kinase panel; assay type: biochemical; conditions: read-out: % Control
T19 construct: purchased Millipore KinaseProfiler (kinases); Cerep (receptors and ion channels)

FGFR1(V561M) = molecular target: T20, FGFR1(V561M) (Homo sapiens, UniProt P11362, V561M); assay: Millipore kinase panel; assay type: biochemical; conditions: read-out: % Control
T20 construct: purchased Millipore KinaseProfiler (kinases); Cerep (receptors and ion channels)

PDGFRALPHA(V561D) = molecular target: T21, PDGFRALPHA(V561D) (Homo sapiens, UniProt P16234, V561D); assay: Millipore kinase panel; assay type: biochemical; conditions: read-out: % Control
T21 construct: purchased Millipore KinaseProfiler (kinases); Cerep (receptors and ion channels)

TAO2 = molecular target: T22, TAO2 (Homo sapiens, UniProt Q9UL54); assay: Millipore kinase panel; assay type: biochemical; conditions: read-out: % Control
T22 construct: purchased Millipore KinaseProfiler (kinases); Cerep (receptors and ion channels)

CHK2(R145W) = molecular target: T23, CHK2(R145W) (Homo sapiens, UniProt O96017, R145W); assay: Millipore kinase panel; assay type: biochemical; conditions: read-out: % Control
T23 construct: purchased Millipore KinaseProfiler (kinases); Cerep (receptors and ion channels)

FGFR2(N549H) = molecular target: T24, FGFR2(N549H) (Homo sapiens, UniProt P21802, N549H); assay: Millipore kinase panel; assay type: biochemical; conditions: read-out: % Control
T24 construct: purchased Millipore KinaseProfiler (kinases); Cerep (receptors and ion channels)

ABL (H396P) = molecular target: T25, ABL (H396P) (Homo sapiens, UniProt P00519, H396P); assay: Millipore kinase panel; assay type: biochemical; conditions: read-out: % Control
T25 construct: purchased Millipore KinaseProfiler (kinases); Cerep (receptors and ion channels)

ABL (Q252H) = molecular target: T26, ABL (Q252H) (Homo sapiens, UniProt P00519, Q252H); assay: Millipore kinase panel; assay type: biochemical; conditions: read-out: % Control
T26 construct: purchased Millipore KinaseProfiler (kinases); Cerep (receptors and ion channels)

MTOR/FKBP12 = molecular target: T27, MTOR/FKBP12 (Homo sapiens, UniProt P42345); assay: Millipore kinase panel; assay type: biochemical; conditions: read-out: % Control
T27 construct: purchased Millipore KinaseProfiler (kinases); Cerep (receptors and ion channels)

PI3 KINASE (H1047R/P85A) = molecular target: T28, PI3 KINASE (H1047R/P85A) (Homo sapiens, UniProt P42336, H1047R); assay: Millipore kinase panel; assay type: biochemical; conditions: read-out: % Control
T28 construct: purchased Millipore KinaseProfiler (kinases); Cerep (receptors and ion channels)

PEK = molecular target: T29, PEK (Homo sapiens, UniProt Q9NZJ5); assay: Millipore kinase panel; assay type: biochemical; conditions: read-out: % Control
T29 construct: purchased Millipore KinaseProfiler (kinases); Cerep (receptors and ion channels)

FMS(Y969C) = molecular target: T30, FMS(Y969C) (Homo sapiens, UniProt P07333, Y969C); assay: Millipore kinase panel; assay type: biochemical; conditions: read-out: % Control
T30 construct: purchased Millipore KinaseProfiler (kinases); Cerep (receptors and ion channels)

CYP450 1A2 = CYP450 1A2 (Homo sapiens, UniProt P05177); assay: CYP450 inhibition
DRAK1 = molecular target: T31, DRAK1 (Homo sapiens, UniProt Q9UEE5); assay: Millipore kinase panel; assay type: biochemical; conditions: read-out: % Control
T31 construct: purchased Millipore KinaseProfiler (kinases); Cerep (receptors and ion channels)

GSK3ALPHA = molecular target: T32, GSK3ALPHA (Homo sapiens, UniProt P49840); assay: Millipore kinase panel; assay type: biochemical; conditions: read-out: % Control
T32 construct: purchased Millipore

HCK = molecular target: T33, HCK (Homo sapiens, UniProt P08631); assay: Millipore kinase panel; assay type: biochemical; conditions: ATP at Km, read-out: % Control
T33 construct: purchased Millipore KinaseProfiler (kinases); Cerep (receptors and ion channels)

MKK6 = molecular target: T34, MKK6 (Homo sapiens, UniProt P52564); assay: Millipore kinase panel; assay type: biochemical; conditions: read-out: % Control
T34 construct: purchased Millipore KinaseProfiler (kinases); Cerep (receptors and ion channels)

MST1 = molecular target: T35, MST1 (Homo sapiens, UniProt Q13043); assay: Millipore kinase panel; assay type: biochemical; conditions: read-out: % Control
T35 construct: purchased Millipore KinaseProfiler (kinases); Cerep (receptors and ion channels)

PAK3 = molecular target: T36, PAK3 (Homo sapiens, UniProt O75914); assay: Millipore kinase panel; assay type: biochemical; conditions: read-out: % Control
T36 construct: purchased Millipore KinaseProfiler (kinases); Cerep (receptors and ion channels)

ACK1 = molecular target: T37, ACK1 (Homo sapiens, UniProt Q07912); assay: Millipore kinase panel; assay type: biochemical; conditions: read-out: % Control
T37 construct: purchased Millipore KinaseProfiler (kinases); Cerep (receptors and ion channels)

T20 sequence (P11362 22-822 V561M): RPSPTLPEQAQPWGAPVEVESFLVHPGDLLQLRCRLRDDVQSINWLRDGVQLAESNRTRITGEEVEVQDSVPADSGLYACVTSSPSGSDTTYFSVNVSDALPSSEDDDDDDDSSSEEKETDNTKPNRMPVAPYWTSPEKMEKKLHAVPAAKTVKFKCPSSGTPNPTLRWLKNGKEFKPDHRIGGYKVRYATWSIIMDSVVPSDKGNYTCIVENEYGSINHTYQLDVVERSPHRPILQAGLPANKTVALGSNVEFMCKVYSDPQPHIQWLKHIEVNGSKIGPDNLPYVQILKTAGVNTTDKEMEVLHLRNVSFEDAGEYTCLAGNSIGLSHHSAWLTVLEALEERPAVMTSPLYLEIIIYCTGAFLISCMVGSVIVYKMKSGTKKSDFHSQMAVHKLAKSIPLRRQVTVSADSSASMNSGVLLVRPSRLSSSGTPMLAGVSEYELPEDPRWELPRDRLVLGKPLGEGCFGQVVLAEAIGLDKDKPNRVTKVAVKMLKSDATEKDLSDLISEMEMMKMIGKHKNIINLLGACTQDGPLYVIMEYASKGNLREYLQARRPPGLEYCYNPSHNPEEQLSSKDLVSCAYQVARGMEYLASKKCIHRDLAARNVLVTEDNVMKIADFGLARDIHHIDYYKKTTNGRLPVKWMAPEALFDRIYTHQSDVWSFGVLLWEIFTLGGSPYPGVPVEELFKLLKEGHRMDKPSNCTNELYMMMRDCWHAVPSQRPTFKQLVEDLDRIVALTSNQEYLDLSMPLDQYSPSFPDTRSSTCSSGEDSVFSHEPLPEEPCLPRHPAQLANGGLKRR
Chain of CYP450 1A2 (P05177 whole entry): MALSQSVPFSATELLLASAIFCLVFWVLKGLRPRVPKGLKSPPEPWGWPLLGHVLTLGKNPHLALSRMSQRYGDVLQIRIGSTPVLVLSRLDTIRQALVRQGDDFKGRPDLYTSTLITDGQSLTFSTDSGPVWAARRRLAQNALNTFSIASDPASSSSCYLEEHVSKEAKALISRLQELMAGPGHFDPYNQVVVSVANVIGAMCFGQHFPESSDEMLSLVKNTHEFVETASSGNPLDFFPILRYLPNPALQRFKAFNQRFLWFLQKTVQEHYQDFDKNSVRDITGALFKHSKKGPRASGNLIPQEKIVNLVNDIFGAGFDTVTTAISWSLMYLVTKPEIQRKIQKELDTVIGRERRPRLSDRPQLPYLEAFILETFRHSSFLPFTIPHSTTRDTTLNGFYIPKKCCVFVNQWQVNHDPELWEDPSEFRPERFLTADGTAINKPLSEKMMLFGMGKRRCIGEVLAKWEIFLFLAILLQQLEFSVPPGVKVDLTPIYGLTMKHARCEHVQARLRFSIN
T2 sequence (P06493 whole entry): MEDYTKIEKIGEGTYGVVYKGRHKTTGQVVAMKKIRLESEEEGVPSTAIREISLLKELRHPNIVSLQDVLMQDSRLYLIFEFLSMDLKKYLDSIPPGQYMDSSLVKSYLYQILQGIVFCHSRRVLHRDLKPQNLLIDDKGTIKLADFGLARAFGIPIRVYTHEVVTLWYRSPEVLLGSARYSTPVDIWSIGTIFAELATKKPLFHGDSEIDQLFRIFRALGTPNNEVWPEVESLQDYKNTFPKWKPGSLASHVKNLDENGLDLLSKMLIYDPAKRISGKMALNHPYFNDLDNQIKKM
T2 sequence (P14635 whole entry partner): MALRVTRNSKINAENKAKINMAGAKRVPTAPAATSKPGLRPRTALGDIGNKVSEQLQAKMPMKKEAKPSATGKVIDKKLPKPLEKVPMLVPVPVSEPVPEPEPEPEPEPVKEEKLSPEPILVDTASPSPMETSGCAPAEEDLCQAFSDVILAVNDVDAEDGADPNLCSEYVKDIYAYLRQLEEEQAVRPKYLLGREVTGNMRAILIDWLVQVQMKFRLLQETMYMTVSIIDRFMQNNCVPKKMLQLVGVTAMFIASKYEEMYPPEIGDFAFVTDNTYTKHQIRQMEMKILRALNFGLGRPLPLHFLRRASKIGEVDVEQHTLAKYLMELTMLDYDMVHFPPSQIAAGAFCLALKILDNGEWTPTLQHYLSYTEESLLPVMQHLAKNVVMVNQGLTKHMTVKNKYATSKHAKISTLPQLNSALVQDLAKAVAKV
T35 sequence (Q13043 whole entry): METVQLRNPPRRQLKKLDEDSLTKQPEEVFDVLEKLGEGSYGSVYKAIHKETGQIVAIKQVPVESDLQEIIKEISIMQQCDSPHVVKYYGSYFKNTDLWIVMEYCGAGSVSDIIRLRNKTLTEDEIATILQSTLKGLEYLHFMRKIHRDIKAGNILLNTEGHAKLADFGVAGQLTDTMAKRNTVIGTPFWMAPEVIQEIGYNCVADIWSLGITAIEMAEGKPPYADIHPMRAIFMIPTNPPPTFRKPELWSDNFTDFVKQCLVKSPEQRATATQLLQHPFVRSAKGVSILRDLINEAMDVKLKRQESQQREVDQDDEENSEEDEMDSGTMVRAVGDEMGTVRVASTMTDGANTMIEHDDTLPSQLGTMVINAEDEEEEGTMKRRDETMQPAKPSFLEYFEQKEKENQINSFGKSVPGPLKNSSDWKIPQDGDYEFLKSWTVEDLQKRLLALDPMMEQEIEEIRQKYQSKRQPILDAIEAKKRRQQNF
T33 sequence (P08631 whole entry): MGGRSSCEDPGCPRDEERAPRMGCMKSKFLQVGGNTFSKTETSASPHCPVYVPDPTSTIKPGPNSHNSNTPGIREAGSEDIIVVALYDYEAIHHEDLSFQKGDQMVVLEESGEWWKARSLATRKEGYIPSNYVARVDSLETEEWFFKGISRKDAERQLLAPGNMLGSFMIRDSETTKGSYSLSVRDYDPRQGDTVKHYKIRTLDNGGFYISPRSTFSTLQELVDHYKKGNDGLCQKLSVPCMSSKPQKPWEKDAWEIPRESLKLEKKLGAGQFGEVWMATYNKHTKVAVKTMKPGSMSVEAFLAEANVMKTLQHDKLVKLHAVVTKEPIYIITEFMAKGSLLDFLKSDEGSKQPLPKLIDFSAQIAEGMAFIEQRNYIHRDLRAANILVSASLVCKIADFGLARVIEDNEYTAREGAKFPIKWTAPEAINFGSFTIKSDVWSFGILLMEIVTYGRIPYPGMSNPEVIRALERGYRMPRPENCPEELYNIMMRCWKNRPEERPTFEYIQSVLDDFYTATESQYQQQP
T11 sequence (O00329 whole entry): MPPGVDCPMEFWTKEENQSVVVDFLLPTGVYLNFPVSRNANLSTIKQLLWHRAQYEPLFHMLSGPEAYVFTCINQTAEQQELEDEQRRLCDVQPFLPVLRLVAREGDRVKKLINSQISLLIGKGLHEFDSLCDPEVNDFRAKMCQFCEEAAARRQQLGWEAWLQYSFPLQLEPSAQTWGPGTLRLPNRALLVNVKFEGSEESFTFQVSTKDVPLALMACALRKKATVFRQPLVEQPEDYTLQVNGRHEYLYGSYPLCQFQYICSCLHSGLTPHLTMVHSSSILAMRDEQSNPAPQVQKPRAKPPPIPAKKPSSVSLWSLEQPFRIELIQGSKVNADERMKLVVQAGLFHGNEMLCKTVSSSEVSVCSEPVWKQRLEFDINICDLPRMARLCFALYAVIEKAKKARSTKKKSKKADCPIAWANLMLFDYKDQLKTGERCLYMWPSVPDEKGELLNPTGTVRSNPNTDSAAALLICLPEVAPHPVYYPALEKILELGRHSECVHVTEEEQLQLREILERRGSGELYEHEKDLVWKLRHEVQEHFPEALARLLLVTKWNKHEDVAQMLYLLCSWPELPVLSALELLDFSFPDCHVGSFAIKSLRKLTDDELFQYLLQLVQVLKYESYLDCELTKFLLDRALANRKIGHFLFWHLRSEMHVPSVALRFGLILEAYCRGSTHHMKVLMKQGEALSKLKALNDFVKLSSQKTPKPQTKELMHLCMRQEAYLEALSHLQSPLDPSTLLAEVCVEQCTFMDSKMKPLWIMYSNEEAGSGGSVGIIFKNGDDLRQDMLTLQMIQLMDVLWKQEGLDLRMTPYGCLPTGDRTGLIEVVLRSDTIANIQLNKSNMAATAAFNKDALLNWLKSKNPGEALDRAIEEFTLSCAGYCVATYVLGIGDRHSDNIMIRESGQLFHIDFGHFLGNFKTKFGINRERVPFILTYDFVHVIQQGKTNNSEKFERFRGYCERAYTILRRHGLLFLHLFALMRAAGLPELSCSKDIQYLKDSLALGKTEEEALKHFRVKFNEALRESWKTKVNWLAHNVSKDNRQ
T11 sequence (P27986 whole entry partner): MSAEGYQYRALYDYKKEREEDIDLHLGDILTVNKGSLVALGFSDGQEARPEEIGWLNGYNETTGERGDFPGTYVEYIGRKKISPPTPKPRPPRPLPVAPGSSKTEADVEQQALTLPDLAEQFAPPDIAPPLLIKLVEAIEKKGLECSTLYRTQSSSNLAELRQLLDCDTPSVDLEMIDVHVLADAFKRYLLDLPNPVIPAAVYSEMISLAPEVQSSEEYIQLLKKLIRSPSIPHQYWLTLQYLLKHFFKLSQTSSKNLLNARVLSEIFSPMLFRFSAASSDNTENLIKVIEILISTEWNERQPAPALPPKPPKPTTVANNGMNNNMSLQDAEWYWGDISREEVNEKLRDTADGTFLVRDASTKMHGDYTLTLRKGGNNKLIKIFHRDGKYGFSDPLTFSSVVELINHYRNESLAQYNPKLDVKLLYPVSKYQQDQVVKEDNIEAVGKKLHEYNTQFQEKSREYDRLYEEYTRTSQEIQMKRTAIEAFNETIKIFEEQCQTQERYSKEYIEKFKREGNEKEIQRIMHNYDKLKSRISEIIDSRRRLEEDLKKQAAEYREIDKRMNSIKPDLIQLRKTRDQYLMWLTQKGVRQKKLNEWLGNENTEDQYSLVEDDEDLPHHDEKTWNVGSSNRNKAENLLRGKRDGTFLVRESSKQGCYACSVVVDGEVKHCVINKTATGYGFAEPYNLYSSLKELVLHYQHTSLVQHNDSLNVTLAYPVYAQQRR

## Cn1cc(-c2ccc(-c3cncc(Cl)c3N3CCC4(CCNC4=O)CC3)cc2)cn1 [Compound 74, 8-(3-Chloro-5-(4-(1-methyl-1H-pyrazol-4-yl)phenyl)pyridin-4-yl)-2,8-diazaspiro[4.5]decan-1-one]
TCF1 or TCF4
  effect on endogenous levels of TCF1 or TCF4: did not affect endogenous levels of TCF1 or TCF4
BZD (central)
  % Inhibition of Control Specific Binding: 18%
ABL(T315I)
  remaining activity at 1 µM: 7%
CDK1/CYCLINB
  remaining activity at 1 µM: -9%
CDK2/CYCLINE
  remaining activity at 1 µM: -14%
CK1DELTA
  remaining activity at 1 µM: 5%
EGFR(L858R)
  remaining activity at 1 µM: 1%
EGFR(L861Q)
  remaining activity at 1 µM: 0%
EPHA4
  remaining activity at 1 µM: -26%
IGF-1R
  remaining activity at 1 µM: 5%
NEK11
  remaining activity at 1 µM: 7%
PI3K BETA
  remaining activity at 1 µM: 0%
PI3K DELTA
  remaining activity at 1 µM: -2%
PKBGAMMA
  remaining activity at 1 µM: -5%
PKCBETAI
  remaining activity at 1 µM: -23%
PKCBII
  remaining activity at 1 µM: -3%
PKCETA
  remaining activity at 1 µM: -13%
SYK
  remaining activity at 1 µM: 5%
TSSK2
  remaining activity at 1 µM: -1%
CAMKIIGAMMA
  remaining activity at 1 µM: 1%
CKIT(V654A)
  remaining activity at 1 µM: -16%
FGFR1(V561M)
  remaining activity at 1 µM: -8%
PDGFRALPHA(V561D)
  remaining activity at 1 µM: 6%
TAO2
  remaining activity at 1 µM: -15%
CHK2(R145W)
  remaining activity at 1 µM: 3%
FGFR2(N549H)
  remaining activity at 1 µM: 1%
ABL (H396P)
  remaining activity at 1 µM: 17%
ABL (Q252H)
  remaining activity at 1 µM: -1%
MTOR/FKBP12
  remaining activity at 1 µM: 11%
PI3 KINASE (H1047R/P85A)
  remaining activity at 1 µM: -1%
PEK
  remaining activity at 1 µM: 8%
FMS(Y969C)
  remaining activity at 1 µM: -31%
CYP450 1A2
  IC50: > 20 µM

## O=C1NCCC12CCN(c1c(Cl)cncc1-c1ccc(N3CCOCC3)cc1)CC2 [Compound 44, 8-(3-Chloro-5-(4-morpholin-4-ylphenyl)pyridin-4-yl)-2,8-diazaspiro[4.5]decan-1-one]
DRAK1
  remaining activity at 1 µM: 4%
GSK3ALPHA
  remaining activity at 1 µM: -39%
HCK
  remaining activity at 1 µM: 3%
MKK6
  remaining activity at 1 µM: 48%
MST1
  remaining activity at 1 µM: 14%
PAK3
  remaining activity at 1 µM: 17%
ACK1
  remaining activity at 1 µM: 0%
